Experimental data reported in patent US8030336B2, “Nicotinamide-based kinase inhibitors” (YM Biosciences Australia Pty Ltd, priority 2002, dated 2011).

Tests used:
Assay type in all cases: biochemical
human JAK2 = target: T1, human JAK2 (Homo sapiens, UniProt O60674); experiment: JAK2 kinase assay (ELISA or Alphascreen); details: read-out: Jak2 inhibition of enzyme activity
T1 construct: The kinase domain of human JAK2 was amplified from U937mRNA; His tag (from the pFastBac HTc vector) (N); made in house; host or cells: baculovirus; Sf9 for virus, High Five insect cells for production
T1 sequence (O60674 849-1124 limits assumed): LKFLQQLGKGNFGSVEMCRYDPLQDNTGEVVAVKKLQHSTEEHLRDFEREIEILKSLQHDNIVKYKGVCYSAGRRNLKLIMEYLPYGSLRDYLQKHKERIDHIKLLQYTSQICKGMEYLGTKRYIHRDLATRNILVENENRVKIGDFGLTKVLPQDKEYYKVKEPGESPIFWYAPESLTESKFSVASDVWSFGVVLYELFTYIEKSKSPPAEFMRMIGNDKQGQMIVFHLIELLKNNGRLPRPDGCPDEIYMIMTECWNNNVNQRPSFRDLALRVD
In short: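 His-tagged human JAK2 kinase domain from baculovirus-infected insect cells, ~1.5 μg per assay, in 50 mM HEPES pH 7.5, 10 mM MgCl2, 150 mM NaCl, with 10 μM–1 mM ATP and 5 μM biotinylated peptide substrate. Phosphotyrosine detected by PY20 ELISA or AlphaScreen.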

abl = target: T2, abl (Homo sapiens, UniProt P00519); experiment: abl kinase assay (ELISA or Alphascreen); details: read-out: abl inhibition of enzyme activity
T2 sequence (P00519 242-493 limits assumed): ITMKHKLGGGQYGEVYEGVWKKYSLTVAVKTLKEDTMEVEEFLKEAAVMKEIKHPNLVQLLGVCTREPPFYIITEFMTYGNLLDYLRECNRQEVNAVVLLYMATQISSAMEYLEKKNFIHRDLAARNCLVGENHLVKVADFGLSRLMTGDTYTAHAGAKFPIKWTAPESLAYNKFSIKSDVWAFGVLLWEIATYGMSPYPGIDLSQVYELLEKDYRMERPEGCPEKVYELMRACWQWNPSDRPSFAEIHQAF
In short: (§1)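 Affinity-purified PTK domain (~1.5 μg) phosphorylated biotinylated peptide (5 μM final) in 50 mM HEPES pH 7.5, 10 mM MgCl2, 150 mM NaCl, 10 μM-1 mM ATP. Phosphotyrosine read by PY20 ELISA or Alphascreen.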

hck = hck (Homo sapiens, UniProt P08631); experiment: hck kinase assay (ELISA or Alphascreen); details: read-out: hck inhibition of enzyme activity
hck, sequence (P08631 262-515 limits assumed, species assumed): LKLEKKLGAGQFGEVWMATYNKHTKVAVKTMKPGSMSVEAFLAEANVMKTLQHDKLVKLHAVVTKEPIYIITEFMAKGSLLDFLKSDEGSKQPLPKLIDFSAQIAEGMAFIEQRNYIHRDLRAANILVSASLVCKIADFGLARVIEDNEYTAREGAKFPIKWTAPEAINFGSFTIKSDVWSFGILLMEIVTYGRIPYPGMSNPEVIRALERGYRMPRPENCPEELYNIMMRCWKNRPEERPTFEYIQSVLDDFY
In short: as §1

human JAK3 = target: T3, human JAK3 (Homo sapiens, UniProt P52333); experiment: JAK3 kinase assay (ELISA or Alphascreen); details: read-out: Jak3 inhibition of enzyme activity
T3 construct: The kinase domain of human JAK3 was amplified from U937mRNA; His tag (from the pFastBac HTb vector) (N); made in house; host or cells: baculovirus; Sf9 for virus, High Five insect cells for production
T3 sequence (P52333 822-1111 limits assumed): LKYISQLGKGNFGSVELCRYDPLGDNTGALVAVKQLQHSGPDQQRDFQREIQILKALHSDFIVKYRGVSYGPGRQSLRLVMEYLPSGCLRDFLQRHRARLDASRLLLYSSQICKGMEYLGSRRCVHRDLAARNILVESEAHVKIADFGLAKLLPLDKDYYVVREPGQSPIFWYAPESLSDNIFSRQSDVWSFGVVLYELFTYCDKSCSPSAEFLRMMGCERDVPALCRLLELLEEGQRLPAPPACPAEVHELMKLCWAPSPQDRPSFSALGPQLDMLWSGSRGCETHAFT
In short: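 His-tagged human JAK3 kinase domain from High Five cells, ~1.5 μg per assay, in 50 mM HEPES pH 7.5, 10 mM MgCl2, 150 mM NaCl, 10 μM-1 mM ATP, 5 μM biotinylated peptide substrate. Phosphotyrosine by PY20 ELISA or Alphascreen.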

fms = target: T4, fms (Homo sapiens, UniProt P07333); experiment: fms kinase assay (ELISA or Alphascreen); details: read-out: fms inhibition of enzyme activity
T4 sequence (P07333 582-910 limits assumed): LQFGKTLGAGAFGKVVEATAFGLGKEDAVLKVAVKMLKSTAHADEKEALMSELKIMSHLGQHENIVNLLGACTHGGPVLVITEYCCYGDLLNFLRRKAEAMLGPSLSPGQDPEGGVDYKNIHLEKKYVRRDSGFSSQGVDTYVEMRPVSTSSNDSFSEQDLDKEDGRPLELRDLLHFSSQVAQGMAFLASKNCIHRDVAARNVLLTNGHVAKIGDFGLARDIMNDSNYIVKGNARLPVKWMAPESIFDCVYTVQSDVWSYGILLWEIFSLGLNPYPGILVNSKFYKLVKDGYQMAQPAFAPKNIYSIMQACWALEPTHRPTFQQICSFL
In short: as §1

Zap70 = target: T5, Zap70 (Homo sapiens, UniProt P43403); experiment: Zap70 kinase assay (ELISA or Alphascreen); details: read-out: Zap70 inhibition of enzyme activity
T5 sequence (P43403 338-600 limits assumed): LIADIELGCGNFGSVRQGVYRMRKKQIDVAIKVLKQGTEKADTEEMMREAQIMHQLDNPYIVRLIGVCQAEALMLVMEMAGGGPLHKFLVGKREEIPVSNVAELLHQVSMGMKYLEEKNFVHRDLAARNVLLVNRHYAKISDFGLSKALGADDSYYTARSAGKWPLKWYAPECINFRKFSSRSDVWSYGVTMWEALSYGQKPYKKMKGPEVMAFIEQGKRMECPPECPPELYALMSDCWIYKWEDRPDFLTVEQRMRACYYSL
In short: as §1

fes = fes (Homo sapiens, UniProt P07332); experiment: fes kinase assay (ELISA or Alphascreen); details: read-out: fes inhibition of enzyme activity
fes, sequence (P07332 561-822 limits assumed, species assumed): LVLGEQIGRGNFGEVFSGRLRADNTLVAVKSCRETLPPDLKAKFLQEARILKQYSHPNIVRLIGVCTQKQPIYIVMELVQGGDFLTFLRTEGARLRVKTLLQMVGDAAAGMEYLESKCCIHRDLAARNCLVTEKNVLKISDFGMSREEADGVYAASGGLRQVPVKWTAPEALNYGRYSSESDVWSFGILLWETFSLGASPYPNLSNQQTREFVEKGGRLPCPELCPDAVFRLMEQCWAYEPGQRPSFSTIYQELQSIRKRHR
In short: as §1

Row | SMILES | inhibition at 10 µM (human JAK2) [%] | inhibition at 10 µM (abl) [%] | inhibition at 10 µM (hck) [%] | inhibition at 10 µM (human JAK3) [%] | inhibition at 10 µM (fms) [%] | inhibition at 10 µM (Zap70) [%] | inhibition at 10 µM (fes) [%]
1 | CN(C)CCNC(=O)c1cncc(-c2ccc(F)cc2)c1 | < 50 | < 50 | < 50 | < 50 | < 50 | < 50 | < 50
2 | Cc1cc(-c2cncc(C(=O)NCc3ccco3)c2)cc(C)c1O | < 50 | < 50 | < 50 | < 50 | < 50 | ≥ 50 | < 50
3 | O=C(Nc1ccccc1)c1cncc(-c2cccs2)c1 | < 50 | < 50 | < 50 | < 50 | < 50 | < 50 | ≥ 50
4 | Cc1cc(-c2cncc(C(=O)NCc3ccncc3)c2)cc(C)c1O | < 50 | < 50 | < 50 | < 50 | ≥ 50 | < 50 | < 50
5 | COc1cc(CNC(=O)c2cncc(-c3cccc(OC)c3)c2)cc(OC)c1 | < 50 | < 50 | < 50 | < 50 | < 50 | ≥ 50 | < 50
6 | COc1cccc(-c2cncc(C(=O)NCc3ccc(C)cc3)c2)c1 | < 50 | < 50 | < 50 | < 50 | < 50 | ≥ 50 | < 50
7 | COc1cccc(-c2cncc(C(=O)Nc3cc(C)ccc3C)c2)c1 | < 50 | < 50 | ≥ 50 | < 50 | < 50 | ≥ 50 | < 50
8 | CC(C)NC(=O)c1cncc(-c2cccs2)c1 | < 50 | < 50 | < 50 | < 50 | ≥ 50 | < 50 | ≥ 50
9 | COc1ccc(CNC(=O)c2cncc(-c3cccc(OC)c3)c2)cc1 | < 50 | < 50 | < 50 | < 50 | < 50 | ≥ 50 | < 50
10 | CC(NC(=O)c1cncc(-c2cccnc2)c1)c1ccc(F)cc1 (stereo not shown) | – | < 50 | < 50 | < 50 | < 50 | < 50 | < 50
11 | O=C(Nc1ccc(N2CCOCC2)cc1)c1cncc(-c2cccs2)c1 | < 50 | < 50 | < 50 | < 50 | < 50 | < 50 | ≥ 50

The next lines start with the values.

Row | inhibition at 10 µM (human JAK2) [%] | inhibition at 10 µM (abl) [%] | inhibition at 10 µM (hck) [%] | inhibition at 10 µM (human JAK3) [%] | inhibition at 10 µM (fms) [%] | inhibition at 10 µM (Zap70) [%] | inhibition at 10 µM (fes) [%] | SMILES
12 | < 50 | < 50 | < 50 | < 50 | < 50 | ≥ 50 | < 50 | COc1cccc(-c2cncc(C(=O)N[C@@H](C)c3cccc(OC)c3)c2)c1
13 | < 50 | < 50 | < 50 | < 50 | < 50 | < 50 | ≥ 50 | CC(CCc1ccccc1)NC(=O)c1cncc(-c2cccs2)c1 (stereo not shown)
14 | – | < 50 | < 50 | < 50 | < 50 | < 50 | < 50 | CC(C)C(CO)NC(=O)c1cncc(-c2cccnc2)c1 (stereo not shown)
15 | < 50 | < 50 | < 50 | < 50 | < 50 | < 50 | ≥ 50 | CC(NC(=O)c1cncc(-c2cccs2)c1)c1ccc(F)cc1 (stereo not shown)
16 | < 50 | < 50 | < 50 | < 50 | ≥ 50 | < 50 | < 50 | COc1cc(-c2cncc(C(=O)OC(C)(C)C)c2)ccc1O
17 | – | < 50 | < 50 | < 50 | < 50 | < 50 | < 50 | CC(C)C(CO)NC(=O)c1cncc(-c2ccc3c(c2)OCO3)c1 (stereo not shown)
18 | ≥ 50 | < 50 | < 50 | < 50 | < 50 | ≥ 50 | < 50 | COc1cc(CNC(=O)c2cncc(-c3cc(OC)c(OC)c(OC)c3Cl)c2)cc(OC)c1
19 | < 50 | < 50 | ≥ 50 | < 50 | ≥ 50 | < 50 | < 50 | Cc1ccc(F)cc1NC(=O)c1cncc(-c2cccs2)c1
20 | < 50 | < 50 | < 50 | < 50 | < 50 | ≥ 50 | < 50 | O=C(Nc1ccccc1)c1cncc(-c2cccnc2)c1
21 | < 50 | < 50 | ≥ 50 | < 50 | ≥ 50 | < 50 | < 50 | COc1cc(-c2cncc(C(=O)Nc3ccccc3C)c2)c(Cl)c(OC)c1OC
22 | < 50 | < 50 | < 50 | < 50 | < 50 | ≥ 50 | < 50 | Cc1cc(-c2cncc(C(=O)NC(C)C)c2)cc(C)c1O
23 | < 50 | < 50 | < 50 | < 50 | ≥ 50 | < 50 | < 50 | O=C(NCc1ccco1)c1cncc(-c2ccc(O)cc2)c1
24 | < 50 | < 50 | < 50 | < 50 | < 50 | ≥ 50 | < 50 | COc1cccc(-c2cncc(C(=O)NCc3ccco3)c2)c1
25 | < 50 | ≥ 50 | ≥ 50 | < 50 | ≥ 50 | < 50 | < 50 | COc1cc(-c2cncc(C(=O)Nc3ccccc3C)c2)cc(OC)c1OC
26 | – | < 50 | < 50 | < 50 | < 50 | < 50 | < 50 | COc1ccc(CNC(=O)c2cncc(-c3cc(C)c(O)c(C)c3)c2)cc1
27 | – | < 50 | < 50 | < 50 | < 50 | < 50 | ≥ 50 | Cc1ccc(CNC(=O)c2cncc(-c3cccs3)c2)cc1
